Assay results: patent US11964000B2, “Cancer treatment methods using nanofiber stabilized growth factors” (Northwestern University, priority 2020, dated 2024)
“Also recorded” adds a separate entry of the source. Residues, ends and D or L forms follow the SMILES beside them. Groups on a side chain read outwards from the residue. *: point of attachment. X1 = CC(=O)N[C@H]1[C@H](OCCn2cc(CCC(=O)*)nn2)O[C@H](COS(=O)(=O)O)[C@@H](OS(=O)(=O)O)[C@@H]1OS(=O)(=O)O; Palmitoyl = CCCCCCCCCCCCCCCC(=O)*; AEEA = NCCOCCOCC(=O)O

Tests used:
[1] = test system: KNS42 cells; experiment: KNS42 cell viability in response to vincristine and vinblastine after BMP4 treatment; type: cell-based, human
Description: (§1) FIG. 2. BMP4 increases chemotherapeutic efficacy via reducing SETD1A and H3K4me3. (FIG. 2A) H3K4me3 levels in pediatric high-grade glioma cells in response to BMP4 (1 to 100/ng/ml). (FIG. 2B) SETD1A, SMAD1/5/8, MDR1, H3K4me3 levels in pediatric high-grade glioma-KNS42 cells and LCH-13-pGBM patient derived primary cultured cells. (FIG. 2C) KNS42 cell viability in response to vincristine (VCR) and vinblastine (VBL) with/without Dorsomorphine, a phosphoSMAD1/5/8 inhibitor. (FIG. 2D, FIG. 2E) KNS42 cell viability in response to VCR and VBL following down- or up-regulation of SETD1A via siSETD1A (D) or pET28-SETD1A and pET28-SETD1A with PSC833, a specific MDR1 inhibitor (E), respectively. (FIG. 2F) Protein immunoprecipitation with SMAD1/5/8, pSMAD1/5/8 antibodies from total protein extracts from BMP4 treated KNS42 cells using Biotin-streptavidin kit (Thermo Fisher) and detected with SETD1A, SMAD1/5/8, pSMAD1/5/8 using western blots.
(§2) This decreasing effect is reversed by Dorsomorphine, an inhibitor of pSMAD1/5/8 (FIG. 2C). In parallel, it was also tested and verified that SETD1A is associated with chemosensitivity in vitro in HGG cells (FIGS. 2D and E). […] Thus, it was hypothesized that BMP4 is altering gene expression through its effect on histone PTM. These findings prompted investigation of 1) in addition to H3K4me3, determining other histone PTMs that are affected subsequent to BMP4 treatment of tumor cells; and 2) other gene expression alterations that contribute to the heightened tumor cell response to cytotoxic therapy following BMP4 treatment.

[2] = test system: HGG cells; experiment: HGG cell chemosensitivity (carboplatin) with PA-bound BMP4; type: cell-based, human; settings: PA 25 μM with BMP4 5 ng/ml; response to carboplatin treatment
Description: (§3) FIG. 5. Self-assembled peptide amphiphile nanostructures extend and enhance BMP4 effects in pediatric high grade glioma cells in vitro. (FIG. 5A) Western blots show PAs enhance BMP4 function by activating its downstream target pSMAD1/5/8 in pediatric glioma KNS42 (FIG. 5B) and CHLA200 cells. (FIG. 5C) Increased therapeutic efficacy in response to carboplatin treatment.
(§4) To investigate biological effects of PA-BMP4, HGG responses to different types of PAs, both with and without bound BMP4, were analyzed. HGG cells were treated with BMP4 (5 ng/ml), GlncPA (25 μM) and GlncPA (25 μM)-BMP4 (5 ng/ml), E2-PA (25 μM) and E2-PA (25 μM)-BMP4 (5 ng/ml) for 24h and 72h.

[3] = biological target: T1, BMP4 (Homo sapiens, UniProt P12644); experiment: ELISA of BMP4 half-life with peptide amphiphile nanostructures; settings: BMP4 with PA nanostructures
T1 sequence (P12644 293-408): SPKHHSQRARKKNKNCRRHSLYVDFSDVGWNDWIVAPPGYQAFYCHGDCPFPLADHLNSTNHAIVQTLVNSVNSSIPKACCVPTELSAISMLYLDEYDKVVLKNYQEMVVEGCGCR
Experimental: FIG. 3. […] (FIG. 3A) Molecular structure of GlncPA molecule (i.e. the glycosylated peptide amphiphile or “GPA”) and schematic of the self-assembled GlncPA nanofiber. The grey molecular region guides the self-assembly process into nanofibers, the blue molecular region contains the tri-sulfated monosaccharide responsible for protein binding actions. (FIG. 3B) SEM of GlncPA nanofiber bundles after exposure to blood proteins for 5 minutes. […] (Abbreviation: E2PA=filler PA=E2-PA, GlncPA=glycosylated PA=GPA)
The grey molecular region guides the self-assembly process into nanofibers, the blue molecular region contains the tri-sulfated monosaccharide responsible for protein binding actions.

[4] = test system: pSMAD1/5/8; experiment: Western blot of pSMAD1/5/8 in HGG cells treated with PAs with and without BMP4; type: cell-based, human; settings: PA 25 μM with BMP4 5 ng/ml, 24h and 72h; KNS42 and CHLA200 cells
Description: as §3, §4

[5] = Cy3-coupled PA, intracranial injection, compared with E2PA and MixPA
Description: (FIG. 6A) Intracranial distribution of glycosylated (GlncPA), E2 (E2PA) and glycosylated+E2 (MixPA) peptide amphiphiles coupled with Cy3.
Intracranial distribution of PAs administered directly into mouse brain, as well as the anti-tumor activity of direct intratumoral administration of PA-bound BMP4, was investigated.

[6] = test system: H3K4me3; experiment: H3K4me3 levels in pediatric high-grade glioma cells in response to BMP4; type: cell-based, human; settings: BMP4 1 to 100 ng/ml
Description: as §1
This decreasing effect is reversed by Dorsomorphine, an inhibitor of pSMAD1/5/8 (FIG. 2C). In parallel, it was also tested and verified that SETD1A is associated with chemosensitivity in vitro in HGG cells (FIGS. 2D and E). […] Thus, it was hypothesized that BMP4 is altering gene expression through its effect on histone PTM. […]

[7] = test system: pSMAD1/5/8, SETD1A, MDR1; experiment: Western blot of SETD1A, SMAD1/5/8, MDR1 in KNS42 cells and LCH-13-pGBM primary cultured cells after BMP4; type: cell-based, human; settings: KNS42 and LCH-13-pGBM cells, BMP4 treatment
Description: as §1, §2

Molecule: c1cc(-c2cnn3cc(-c4ccc(OCCN5CCCCC5)cc4)cnc23)ccn1 [Dorsomorphine, reference compound]
- effect on BMP4-induced decrease of cell viability with VCR or VBL ([1]; Dorsomorphine, inhibitor of pSMAD1/5/8, added): reversed

Molecule: CCCCCCCCCCCCCCCC(=O)N[C@H](C(=O)N[C@H](C(=O)N[C@@H](C)C(=O)N[C@@H](C)C(=O)N[C@@H](CCC(=O)O)C(=O)N[C@@H](CCC(=O)O)C(N)=O)C(C)C)C(C)C [E2-PA] (Palmitoyl-VVAAEE-NH2)
- HGG cell chemosensitivity [2]: increased HGG cell chemosensitivity
- BMP4 half-life [3]: extend BMP4 half-life
- BMP4 activity as phosphorylation of SMAD1/5/8 [4]: enhance BMP4 activity

Molecule: CCCCCCCCCCCCCCCC(=O)N[C@H](C(=O)N[C@H](C(=O)N[C@@H](C)C(=O)N[C@@H](C)C(=O)N[C@@H](CCC(=O)O)C(=O)N[C@@H](CCC(=O)O)C(=O)N[C@@H](CCCCNC(=O)COCCOCCNC(=O)CCc1cn(CCO[C@@H]2O[C@H](COS(=O)(=O)O)[C@@H](OS(=O)(=O)O)[C@H](OS(=O)(=O)O)[C@H]2NC(C)=O)nn1)C(N)=O)C(C)C)C(C)C [GlncPA] (Palmitoyl-VVAAEEK([AEEA-X1])-NH2)
- intracranial distribution [5]: greater distribution
- BMP4 half-life [3]: markedly prolong the half-life of BMP4

B1: Bone morphogenetic protein 4 (protein)
chain: T1 sequence (P12644 293-408)
- H3K4me3 level [6]: reduces H3K4me3; also recorded: significant decrease in H3K4me3
- expression of SETD1A [7]: decreasing expression of SETD1A
- expression of multidrug resistant gene 1 (MDR1) [7]: decreasing expression
- phosphorylation of SMAD1/5/8 (pSMAD1/5/8) [7]: increases phosphorylation of SMAD1/5/8
- cell viability with vinblastine (VBL) ([1]; BMP4 for 48 hrs, then VBL 2 μg/ml, relative to VBL alone): markedly decreased cell viability
- cell viability with vincristine (VCR) ([1]; BMP4 for 48 hrs, then VCR 1 μg/ml, relative to VCR alone): markedly decreased cell viability
